Data on nine compounds can be found in patent EP0335545B2, “Pharmaceutical formulations for parenteral use” (UNIVERSITY OF FLORIDA, priority 1988, dated 1989).

Converted amounts (≈) assume the structure as drawn.

Data set [1] in a line: physchem. The method, then: For comparison, the solubilities of the drugs in water were also determined.
• Wavelength: 245 nm • Column: Waters µBondapak CN, 3.9 mm (id.) x 30 cm • Mobile phase: acetonitrile, acetic acid, water (60:1:39) containing 0.1% 1-hexasulfonic acid, sodium salt • Flow rate: 2.00 mL/min.
• Wavelength: 263 nm • Column: ASI C18, 10 µm, 3.9 mm (i.d.) x 30 cm • Mobile phase: acetonitrile, water (55:45) • Flow rate: 1.00 mL/min.
• Wavelength: 241 nm • Column: Waters µBondapak CN, 3.9 mm (i.d.) x 30 cm • Mobile phase: acetonitrile, water (6:4) • Flow rate: 2.00 mL/min.
• Wavelength: 280 nm • Column: ASI C18, 10 µm, 3.9 mm (i.d.) x 30 cm • Mobile phase: acetonitrile, water (55:45) • Flow rate: 2.00 mL/min.
• Wavelength: 248 nm • Column: Fisher Resolvex C18, 4.6 mm (i.d.) x 25 cm • Mobile phase: acetonitrile, water (6:4) • Flow rate: 1.50 mL/min.
• Wavelength: 248 nm • Column: Fisher Resolvex C18, 4.6 mm (i.d.) x 25 cm • Mobile phase: acetonitrile, water (7:3) • Flow rate: 2.00 mL/min.
• Wavelength: 253 nm • Column: Waters µBondapak CN, 3.9 mm (i.d.) x 30 cm • Mobile phase: acetonitrile, […], water (60:1:39) containing 0.1% 1-hexanesulfonic acid, sodium salt • Flow rate: 2.00 mL/min.
• Wavelength 308 nm • Column: Fisher Resolvex C18, 4.6 mm (i.d.) x 25 cm • Mobile phase: methanol, acetic acid, water (50:1:49) containing 0.1% 1-octanesulfonic acid, sodium salt • Flow rate: 2.00 mL/min.
• Wavelength: 240 nm • Column: Fisher Resolvex C18, 4.6 mm (i.d.) x 25 cm • Mobile phase: acetonitrile, water (6:4) • Flow rate: 1.50 mL/min.
• Wavelength: 240 nm • Column: Fisher Resolvex C18, 4.6 mm (i.d.) x 25 cm Mobile phase: acetonitrile, water (7:3) • Flow rate: 2.00 mL/min.
• Wavelength: 241 nm • Column: Fisher Resolvex C18, 4.6 mm (i.d.) x 25 cm • Mobile phase: acetonitrile, water (7:3) • Flow rate: 2.00 mL/min.
• Wavelength: 230 nm • Column: Waters µBondapak CN, 3.9 mm (i.d.) x 30 cm • Mobile phase: acetonitrile, water (35:65) • Flow rate: 2.00 mL/min.
• Wavelength: 258 nm • Column: Fisher Resolvex C18, 4.6 mm (i.d.) x 25 cm • Mobile phase: acetonitrile, water (55:45) • Flow rate: 2.00 mL/min.
• Wavelength: 325 nm • Column: Waters µBondapak C18, 10 µm, 3.9 mm (i.d.) x 30 cm • Mobile phase: acetonitrile, water (55:45) • Flow rate: 1.00 mL/min.

Data set [2] can be described thus: Phase-solubility experiments in aqueous HPCD at 30.0±0.2°C (chlorambucil, lomustine, melphalan).
Experimental: (§1) After equilibration in a 30.0±0.2°C water bath in the dark for up to 72 hours, aliquots of the mixtures were filtered through 0.45 Mm membrane filters, diluted and the drug concentration determined by HPLC or UV methods.
Data set [3] is described as follows: physchem. The source holds these as a separate data set.
Experimental: as §1
A short description of data set [4]: Solubilizing effect of a 50% w/w solution of HPCD on steroids and CDS. Conditions: 50% w/w aqueous hpcd. The procedure:
An excess of E2-CDS was sonicated with an aqueous solution of the appropriate solubilizing agent for 30 minutes. The suspension was then centrifuged, filtered through 0.45 µm polyvinylidene difluoride (Millex-HV4, Millipore®) membranes and analyzed by HPLC. […] An estimation of the bulk equilibrium constant was obtained by correlating the millimolarity of E2-CDS solubilized and the millimolarity of the cyclodextrin added. This latter value was calculated using the average molecular weight of the isomeric mixture determined by mass spectroscopy. The solubilizing effect of a 50% w/w solution of HPCD was also examined for a series of steroids and dihydropyridines (CDS). These studies were carried out in a similar manner to those previously described.
For the CDS, the wavelength monitored was 360 nm while for estrogen 220 nm was used.
Separation was achieved on an Analytical Sciences, Inc. (ASI) 10 µm particle size, C18 reversed phase 30 cm x 3.9 mm i.d. analytical column. The flow rate was 1 mL/min, the compounds were detected at 360 nm and in all determinations the temperature was ambient. […] For the GABA-CDS1, a mobile phase consisting of 50:1:1:48 of the same components was required. […] Other compounds were assayed spectrophotometrically.

A short description of data set [5]: Preparation of solid freeze-dried HPCD complexes: degree of incorporation. Format: physicochemical. Particulars: freeze-dried complex from 50% w/w HPCD (ASDS 5.1). The procedure:
An excess of E2-CDS was added and the solution then was purged with helium. The resulting suspension was then sonicated for 30 minutes, filtered through a glass filter (ASTM 10-15M, Pyrex No. 36060) and freeze-dried overnight. Best results were obtained by hard-freezing the aqueous solution of the E2-CDS/HPCD complex for at least 10 hours before lyophilization. The degree of complex formation was determined by dissolving a small amount of the dry complex in methanol and then analyzing by high pressure liquid chromatography (HPLC).
An excess of E2-CDS or other CDS was added to a 50% w/w solution of HPCD. The suspension was sonicated for 30 minutes, filtered through 0.45 µm PVDF membranes and freeze-dried. The degree of incorporation was determined either spectrophotometrically or by HPLC. In some cases, the effect of solubilizing agents on the degree of incorporation was examined. This involved adding small amounts of polyoxyethylene 20 cetyl ether (Brij), polyoxyethylene sorbitan monooleate (Tween 80) or ethanol to the aqueous solution prior to lyophilization.
The retention time was 5.2 min. Other compounds were assayed spectrophotometrically.
The solution was degassed and the suspension was sonicated for 30 minutes, after which it was filtered and the filtrate was lyophilized. The dried filtrate contained 65.6 mg testosterone propionate or 29.6 mg T-CDS1 per gram of cyclodextrin complex. Compounds were analyzed for decomposition by thin-layer chromatography and ultraviolet absorption.

As usually defined, the solubility is the concentration that dissolves in the medium under given conditions. Higher therefore signals much dissolved substance.

As for `C#C[C@]1(O)CC[C@H]2[C@@H]3CCc4cc(OC)ccc4[C@H]3CC[C@@]21C` [Ethynylestradiol 3-methyl ether], the “Increase in Solubility (HPCD/water)” value in data set [1] was “∼13,000”. Besides, the solubility in data set [1] (25% w/v hpcd) is 7130 µg/mL (≈ 23 mM); in data set [1] (50% w/w hpcd), 13300 µg/mL (≈ 42.8 mM); in data set [1] (water) it was 1 µg/mL (≈ 0.00322 mM).
Consider `O=NN(CCCl)C(=O)NC1CCCCC1` [Lomustine], for which the solubility in data set [2] (1% w/w aqueous hpcd) is 380 µg/mL (≈ 1.63 mM); in data set [2] (5% w/w aqueous hpcd), 1680 µg/mL (≈ 7.19 mM); in data set [2] (10% w/w aqueous hpcd), 3330 µg/mL (≈ 14.2 mM); in data set [2] (15% w/w aqueous hpcd) it was 6260 µg/mL (≈ 26.8 mM); in data set [2] (20% w/v aqueous hpcd), 8440 µg/mL (≈ 36.1 mM); in data set [2] (20% w/w aqueous hpcd), 8440 µg/mL (≈ 36.1 mM). Besides, the solubility in data set [2] (25% w/v aqueous hpcd) was found to be 8900 µg/mL (≈ 38.1 mM); in data set [2] (25% w/w aqueous hpcd), 8900 µg/mL (≈ 38.1 mM); in data set [2] (water) it was 180 µg/mL (≈ 0.77 mM); in data set [2] (water (0% hpcd)), 180 µg/mL (≈ 0.77 mM). In data set [2] (25% HPCD versus water), the “increase: water/25% HPCD” value is reported as 49.44. This compound gave a solubility at 4 h in data set [2] (50% w/w aqueous hpcd) of around 12000 µg/mL (≈ 51.3 mM). Further, the “degradation during the solubility experiments” value in data set [2] (aqueous HPCD, 30°) is recorded as “Some degradation occurred”.
As for `CN1CCN=C(c2ccccc2)c2cc(Cl)ccc21` [Medazepam], the solubility is 8300 µg/mL (≈ 30.7 mM) in data set [1] (50% w/w hpcd, pH 7.5) and 10 µg/mL (≈ 0.0369 mM) in data set [1] (water).
`N[C@@H](Cc1ccc(N(CCCl)CCCl)cc1)C(=O)O` [Melphalan]: the solubility came to 4160 µg/mL (≈ 13.6 mM) in data set [3] (1% aqueous hpcd); 4300 µg/mL (≈ 14.1 mM) in data set [3] (2% aqueous hpcd); 6240 µg/mL (≈ 20.4 mM) in data set [3] (3% aqueous hpcd); 7140 µg/mL (≈ 23.4 mM) in data set [3] (4% aqueous hpcd); 7200 µg/mL (≈ 23.6 mM) in data set [3] (5% aqueous hpcd); 10500 µg/mL (≈ 34.4 mM) in data set [3] (7% aqueous hpcd). Besides, the solubility in data set [3] (10% aqueous hpcd) was found to be 13400 µg/mL (≈ 43.8 mM); in data set [3] (15% aqueous hpcd) it was 17600 µg/mL (≈ 57.8 mM); in data set [3] (20% aqueous hpcd), 24800 µg/mL (≈ 81.1 mM); in data set [3] (25% aqueous hpcd) it was 31400 µg/mL (≈ 103 mM); in data set [3] (water) it was 1260 µg/mL (≈ 4.13 mM); in data set [3] (water (0% hpcd)) it was 1260 µg/mL (≈ 4.13 mM). In data set [3] (50% aqueous hpcd), the solubility at 4 h is around 21900 µg/mL (≈ 71.8 mM).
Turning to `CN(Cc1cnc2nc(N)nc(N)c2n1)c1ccc(C(=O)N[C@@H](CCC(=O)O)C(=O)O)cc1` [Methotrexate], the solubility stood at 10000 µg/mL (≈ 22 mM) in data set [1] (50% w/w hpcd, pH 7.6) and 45 µg/mL (≈ 0.099 mM) in data set [1] (water).
Turning to `C#C[C@]1(OC(C)=O)CC[C@H]2[C@@H]3CCC4=CC(=O)CC[C@@H]4[C@H]3CC[C@@]21C` [Norethindrone acetate], the “Increase in Solubility (HPCD/water)” value in data set [1] was “∼97,500”. Also, the figures for the solubility in data set [1] (25% w/v hpcd), in data set [1] (50% w/w hpcd) and in data set [1] (water) were 9410 µg/mL, 19500 µg/mL and 0.2 µg/mL, respectively.
Take `O=C1NC(=O)C(c2ccccc2)(c2ccccc2)N1` [Phenytoin]: in data set [1], the “Increase in Solubility (HPCD/water)” value was “∼450”. Further, the solubility in data set [1] (50% w/w hpcd) is 9300 µg/mL (≈ 36.9 mM); in data set [1] (water), 20 µg/mL (≈ 0.0793 mM).
In data set [4], `C[C@]12CC[C@H]3[C@@H](CCC4=CC(=O)CC[C@@]43C)[C@@H]1CC[C@@H]2O` [Testosterone] came in with a solubility of 38000 µg/mL (≈ 132 mM).
As to Estradiol 17-Valerate, the “Amount of Drug in Dry Complex” value in data set [5] turned out to be 23.5 mg/g.
